Results from US20080293683A1, “Hormone Replacement Therapy” (University of Kansas Medical Center, priority 2007, published 2008).
pIC50: −log10 of the molar value. “And” between values parts separate entries of the source, which are not always exact repeats. Equal values may be shown once. Read-outs that look alike come from different tables or passages of the source.

How the values were obtained:
[1] = molecular target: T1, recombinant human ERβ (Homo sapiens, UniProt Q92731); experiment: ERβ binding assay: competition of [3H]E2 binding by competing estrogens; conditions: for RBAβ (%) (relative binding affinity for ERβ, of E2): calculated against E2 = 100; for binding affinity for ERβ (in words): concentrations up to 1000 nM
T1 construct: purchased PanVera Corporation (Madison, Wis.); host or cells: baculovirus-mediated expression system
Excerpt: (§1) The recombinant human ERα and ERβ proteins and bovine serum albumin (BSA) were obtained from PanVera Corporation (Madison, Wis.). According to the supplier, the recombinant human ERα and ERβ were produced in a baculovirus-mediated expression system, and they were soluble and functionally active, with post-translational modifications similar to those found in mammalian cells. See Reid et al., Human estrogen receptor-α: Regulation by synthesis, modification and degradation, Cell. Mol. Life.
(§2) The following buffer solutions were used in the ER binding assays, and they were prepared beforehand and stored at 4° C. The binding buffer consisted of 10% glycerol, 2 mM dithiothreitol, 1 mg/mL BSA and 10 mM Tris-HCl at pH 7.5. The ERα washing buffer contained 40 mM Tris-HCl and 100 mM KCl (pH 7.4), but the ERG washing buffer contained only 40 mM Tris-HCl (adjusted to pH 7.4). The 50% hydroxylapatite slurry was prepared first by vigorously mixing 10 g hydroxylapatite with 60 mL of the Tris-HCl solution (50 mM, pH 7.4). Hydroxylapatite was then allowed to settle for 20 minutes at room temperature, and the supernatant was decanted. The above procedures were repeated 10 times, and afterwards hydroxylapatite was kept in the 50 mM Tris-HCl solution overnight at 4° C. Hydroxylapatite slurry was then adjusted to an approximate final concentration of 50% (v/v) using the same Tris-HCl solution and stored at 4° C., and the slurry was stable for up to several months.
(§3) Note that all of the estrogens were initially dissolved in pure ethanol to a stock concentration of 1 mM, and then further diluted to 100 μM with 20% aqueous ethanol. […] Immediately before the addition of the ERα or ERβ protein, it was diluted in the binding buffer and mixed gently with repetitive pipettings. […] The incubation mixture was then mixed gently and thoroughly with repetitive pipettings. […] The binding mixture was incubated at room temperature for two hours. At the end of the incubation, 100 μL of the hydroxylapatite slurry was added to each tube and the tubes were incubated on ice for 15 minutes with 3 times of brief vortexing. An aliquot (1 mL) of the appropriate washing buffer was added, mixed, and centrifuged at 10,000 g for five minutes, and the supernatants were discarded. This wash step was repeated twice. Hydroxylapatite pellets were then resuspended in 200 μL ethanol (followed by another rinse with 200 μL ethanol), and then the content was transferred to scintillation vials (containing 4 mL of the scintillation fluid) for measurement of ^3H-radioactivity with a liquid scintillation counter (Packard Tri-CARB 2900 TR; Downers Grove, Ill.).
(§4) To calculate the specific binding (pmol/mL) of the human ERα or ERβ protein at each concentration point, the following equation was used: […]
(§5) When a lower radioligand concentration is used, the corresponding IC50 value will also be relatively lower, but when the radioligand concentration increases, the corresponding IC50 value will also increase. […] Since the RBA value is a parameter that is independent of the radioligand concentration used, we thus have placed more emphasis on the RBA values instead of the absolute IC50 values in interpreting the physiological meanings of the data from in vitro receptor competition assays.

[2] = molecular target: T2, recombinant human ERα (Homo sapiens, UniProt P03372); experiment: ERα binding assay: competition of [3H]E2 binding by competing estrogens; conditions: for RBAα % (relative binding affinity for ERα, of E2): calculated against E2 = 100; for RBAα/RBAβ: ratio of relative binding affinities ERα over ERβ; for RBA for ERα, % of E1: relative to E1; for binding affinity for ERα (in words): concentrations up to 1000 nM
T2 construct: purchased PanVera Corporation (Madison, Wis.); host or cells: baculovirus-mediated expression system
T2 sequence (P03372 1-595): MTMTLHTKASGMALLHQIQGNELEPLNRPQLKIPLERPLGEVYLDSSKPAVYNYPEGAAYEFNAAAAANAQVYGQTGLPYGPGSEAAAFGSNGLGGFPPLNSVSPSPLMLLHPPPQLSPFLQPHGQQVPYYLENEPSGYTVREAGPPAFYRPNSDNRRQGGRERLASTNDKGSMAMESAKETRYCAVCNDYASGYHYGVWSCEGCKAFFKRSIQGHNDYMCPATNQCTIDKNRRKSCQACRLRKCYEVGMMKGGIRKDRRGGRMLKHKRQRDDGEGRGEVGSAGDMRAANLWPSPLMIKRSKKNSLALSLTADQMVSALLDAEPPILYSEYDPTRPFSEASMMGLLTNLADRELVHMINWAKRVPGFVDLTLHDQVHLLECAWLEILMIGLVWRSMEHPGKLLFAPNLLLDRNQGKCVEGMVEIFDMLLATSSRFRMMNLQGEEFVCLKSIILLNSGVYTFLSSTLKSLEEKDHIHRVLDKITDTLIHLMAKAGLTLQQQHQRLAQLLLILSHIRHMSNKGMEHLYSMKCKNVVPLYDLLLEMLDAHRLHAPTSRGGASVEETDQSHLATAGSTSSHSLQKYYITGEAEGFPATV
Excerpt: as §1, §2, §3, §4, §5

T1 sequence (Q92731 whole entry): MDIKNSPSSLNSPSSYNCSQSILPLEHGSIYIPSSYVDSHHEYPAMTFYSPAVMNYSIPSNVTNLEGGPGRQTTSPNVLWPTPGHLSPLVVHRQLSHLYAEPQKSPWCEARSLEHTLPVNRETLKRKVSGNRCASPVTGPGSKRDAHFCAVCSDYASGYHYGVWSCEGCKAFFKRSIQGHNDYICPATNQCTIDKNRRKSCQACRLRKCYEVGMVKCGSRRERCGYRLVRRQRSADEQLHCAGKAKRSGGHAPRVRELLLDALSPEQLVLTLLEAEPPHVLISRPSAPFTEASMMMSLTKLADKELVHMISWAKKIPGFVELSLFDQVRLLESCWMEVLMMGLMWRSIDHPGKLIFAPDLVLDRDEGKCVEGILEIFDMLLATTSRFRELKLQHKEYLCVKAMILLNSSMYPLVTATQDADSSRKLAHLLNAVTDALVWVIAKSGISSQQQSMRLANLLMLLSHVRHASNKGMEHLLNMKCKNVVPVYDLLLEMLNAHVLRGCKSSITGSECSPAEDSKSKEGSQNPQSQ

SMILES | RBAβ (%) (relative binding affinity for ERβ, of E2) [1] | pIC50 ([1]; read-out: ERβ IC50) | RBAα % (relative binding affinity for ERα, of E2) [2] | RBAα/RBAβ [2] | pIC50 ([2]; read-out: ERα IC50) | binding affinity for ERβ (in words) [1] | binding affinity for ERα (in words) [2] | further results
CC12CCC3c4ccc(O)cc4C(=O)CC3C1CCC2=O (stereo not drawn) [6-Keto-E1, 6-Ketoestrone] | 1% | 6.05 | 2% | 2 | 6.31 |  |  | RBA for ERβ, % of E1 ([1]; relative to E1): 50%; RBAα/RBAβ ([2]; listed as 6-ketoestrone): about 2; RBA for ERα, % of E1 [2]: 23%
CC12CCC3c4cc(Br)c(O)cc4CCC3C1CCC2O (stereo not drawn) [2-Br-E2, 2-Bromoestradiol] | < 0.5% and 0.4% | 5.60 | 4% | 10 | 6.55 |  |  | RBAα/RBAβ ([2]; listed as 2-bromoestradiol): about 10
COc1cc2c(cc1O)[C@H]1CC[C@]3(C)C(=O)CC[C@H]3[C@@H]1CC2 [2-OH-3-MeO-E1, 2-Hydroxyestrone 3-methyl ether] |  | < 6.00 |  |  | < 6.00 | did not have appreciable binding affinity | did not have appreciable binding affinity | 
C[C@]12CC[C@@H]3c4cc(N)c(O)cc4CC[C@H]3[C@@H]1CCC2=O [2-NH2-E1, 2-Aminoestrone] | 0.4% | 5.60 | 3% | 7.5 | 6.40 | very weak binding affinities | very weak binding affinities | RBAα/RBAβ ([2]; listed as 2-aminoestrone): about 7.5
C/C=C(/C(=C/C)c1ccc(O)cc1)c1ccc(O)cc1 [Dienestrol, reference compound] | 56% | 7.70 | 37% | 0.7 | 7.52 |  |  | 
O=c1c(O)c(-c2cc(O)c(O)c(O)c2)oc2cc(O)cc(O)c12 [Myricetin, reference compound] |  | < 6.00 |  |  | < 6.00 | no appreciable binding affinity | no appreciable binding affinity | 
Cc1c(O)ccc2c1CC[C@@H]1[C@@H]2CC[C@]2(C)[C@@H](O)CC[C@@H]12 [4-Methyl-E2, 4-Methylestradiol] | 35% | 7.60 | 7% and 9% | 0.3 | 6.90 |  |  | 
C[C@]12CC[C@@H]3c4ccc(OS(=O)(=O)O)cc4CC[C@H]3[C@@H]1CC[C@@H]2O [E2-3-sulfate, Estradiol 3-sulfate] |  | < 6.00 |  |  | < 6.00 | basically devoid of appreciable binding affinity | basically devoid of appreciable binding affinity | 
C[C@]12CC[C@@H]3c4cc(O)c(O)cc4CC[C@H]3[C@@H]1C[C@@H](O)[C@@H]2O [2-OH-E3, 2-Hydroxyestriol] | 1% | 6.10 | 2% | 2 | 6.30 |  |  | RBAα/RBAβ ([2]; listed as 2-hydroxyestriol): about 2
C[C@]12C[C@@H](O)[C@@H]3c4ccc(O)cc4CC[C@H]3[C@@H]1CC[C@@H]2O [11α-OH-E2, 11α-Hydroxyestradiol] |  | < 6.00 |  |  | < 6.00 |  |  | 
CCOc1cc2c(cc1O)CCC1C2CCC2(C)C(O)CCC12 (stereo not drawn) [2-Ethoxy-E2, 2-Ethoxyestradiol] |  | < 6.00 |  |  | < 6.00 | weak binding affinity | weak binding affinity | 
CC12CCC3c4ccc(O)c(N)c4CCC3C1CCC2=O (stereo not drawn) [4-NH2-E1, 4-Aminoestrone] |  | < 6.00 | 3% |  | 6.45 | very weak binding affinities | very weak binding affinities | 
CC12CCC3c4ccc(O)cc4CCC3C1CC(=O)C2=O (stereo not drawn) [16-Keto-E1, 16-Ketoestrone] | 10% | 7.05 | 2% | 0.2 | 6.20 |  |  | RBA for ERβ, % of E1 ([1]; relative to E1): 501%; binding affinity for ERβ, fold higher than E1 ([1]; relative to E1): five-fold higher; relative preference for ERβ over ERα, times higher than E1 ([1]; relative to E1): approximately 25 times; RBA for ERα, % of E1 [2]: 18%
C#C[C@]1(O)CC[C@H]2[C@@H]3CCc4cc(O)ccc4[C@H]3[C@@H](OC)C[C@@]21C [11β-MeO-EE2, 11β-Methoxyethynylestradiol] | 20% | 7.35 | 35% | 1.8 | 7.50 |  |  | RBAα/RBAβ ([2]; listed as 11β-methoxyethynyl estradiol): about 1.8
CC12CCC3c4ccc(O)cc4C(=O)CC3C1CC(O)C2O (stereo not drawn) [6-Keto-E3, 6-Ketoestriol] | 3% | 6.50 | 25% | 8.3 | 7.35 |  |  | RBA for ERβ, % of E3 ([1]; relative to E3): 8%; RBAα/RBAβ ([2]; listed as 6-ketoestriol): about 8.3; RBA for ERα, % of E3 ([2]; relative to E3): 224%
C[C@]12C[C@H](O)[C@@H]3c4ccc(O)cc4CC[C@H]3[C@@H]1CCC2=O [11β-OH-E1, 11β-Hydroxyestrone] |  | < 6.00 |  |  | < 6.00 |  |  | 
C[C@]12CC[C@@H]3c4ccc(O)c(Br)c4CC[C@H]3[C@@H]1CC[C@@H]2O [4-Br-E2, 4-Bromoestradiol] | 35% | 7.60 | 7% | 0.2 | 6.80 |  |  | preference of binding affinity for ERβ over ERα ([1]; ERβ over ERα): about 5 fold
C[C@@]12C=CC[C@H]1[C@@H]1CCc3cc(O)ccc3[C@H]1CC2 [16-Estratetraen, 1,3,5(10),16-Estratetraen-3-ol] | 80% | 7.85 | 35% | 0.4 | 7.50 |  |  | 
C[C@]12CC[C@@H]3c4ccc(O)cc4C(=O)C[C@H]3[C@@H]1CC[C@H]2O [6-Keto-E2-17α, 6-Ketoestradiol-17α] | 1% |  | 2% | 2 |  |  |  | pIC50 [1]: 5.95; RBA for ERβ, % of E2-17α ([1]; relative to E2-17α): 25%; pIC50 [2]: 6.25; RBAα/RBAβ ([2]; listed as 6-ketoestradiol-17α): about 2; RBA for ERα, % of E2-17α ([2]; relative to E2-17α): 9%
